# Laboratory results published in patent US4939168A, “Discodermolide compounds, compositions containing same and methods of preparation and use” (Harbor Branch Oceanographics Institution, Inc., priority 1989, dated 1990).
# How the values were obtained:
# Type in all cases: cell-based
# [1] = tested on: human peripheral blood lymphocytes (PBL); assay: PHA mitogenesis of human lymphocytes (mitogen stimulation assay); details: for PHA (counts per minute of incorporated 3H-thymidine): PHA 10.0 μg/ml, control 412200
# Protocol: (§1) The pure compound discodermolide I, was tested for immunosuppressive effects on the MLR and LCV assays using murine splenocytes and in the human MLR and mitogen stimulation assays, using human peripheral blood lymphocytes (PBL). Cellular proliferation was determined using incorporation of ^3 H-thymidine.
# ^2 Counts per minute of incorporated ^3 Hthymidine. Conc. of PHA
# [2] = tested on: murine splenocytes; assay: murine two-way mixed lymphocyte reaction (MLR), 3H-thymidine incorporation
# Protocol: as §1
# [3] = tested on: human peripheral blood lymphocytes (PBL); assay: Con A mitogenesis of human lymphocytes (mitogen stimulation assay); details: for Con A (counts per minute of incorporated 3H-thymidine): Con A 10.0 μg/ml, control 262000
# Protocol: as §1
# ^1 Counts per minute of incorporated ^3 Hthymidine. Conc. of Con
# [4] = tested on: human peripheral blood lymphocytes (PBL); assay: human mixed lymphocyte reaction (MLR), 3H-thymidine incorporation; details: for CPM (counts per minute of incorporated 3H-thymidine): control 48064
# Protocol: as §1
# ^1 Counts per minute of incorporate ^3 Hthymidine
# [5] = tested on: murine P388 leukemia cells; assay: P388 cytotoxicity (antiproliferative effect, MTT); details: Mus musculus, 48-h exposure
# Protocol: The crude ethanolic extract of the sponge and the pure compound I were tested for toxicity against murine P388 leukemia cells. P388 cells obtained from Dr. J. Mayo, National Cancer Institute, Bethesda, MD, were maintained in Roswell Park Memorial Institute (RPMI) medium 1640 supplemented with 10% horse serum. All cell lines were cultured in plastic tissue culture flasks and kept in an incubator at 37° C. in humidified air containing 5% CO2. Antibiotic-free stock cultures of P388 cells were subcultured to 10^5 cells/ml by dilution in fresh growth medium at 2 to 3 day intervals. The mean generation time of primary cultures was 14 to 17 hr.
# To assess the antiproliferative effects of agents against P388 cells, 200 μl cultures (96-well tissue culture plates, Nunc, Denmark) were established at 1×10^5 cells/ml in drug-free medium or medium containing the crude extract at a final dilution of 1:500 or discodermolide at various concentrations. Solvent for all dilutions was methanol, which was removed from plates under vacuum. All experimental cultures were initiated in medium containing Gentamycin sulfate (50 μg/ml; Schering Corporation, Kenilworth, NJ). After 48-h exposures, P388 cells were enumerated using 3-[4,5-Dimethylthiazol-2-yl]-2,5-diphenyltetrazolium bromide (MTT) as described below (M. C. Alley, et al., Cancer Res. 48:589, 1988).
# To quantitate the effects on cell proliferation, 75 μl of warm growth medium containing 5 mg/ml MTT was added to each well and cultures were returned to the incubator for 90 minutes. To spectrophotometrically quantitate formation of reduced formazan, plates were centrifuged (900×g, 5 minutes), culture fluids removed by aspiration, and 200 μl of acidified isopropanol (2 ml concentrated HCl/liter isopropanol) added per well. The absorbance of the resulting solutions were measured at 570 nm with a plate reader (MR700 Microplate Reader, Dynatech, Laboratories, Chantilly, Va.). […] A linear relationship between P388 cell number and formazan production was found over the range of cell densities observed in these experiments.
# [6] = viability of cells in the human mixed lymphocyte reaction, M.T.T. metabolism
# Protocol: as §1
# ^2 % Viable cells as measured by M.T.T. metabolism
# [7] = tested on: murine splenocytes; assay: murine lymphocyte viability assay (LCV), 3H-thymidine incorporation
# Protocol: as §1
# [8] = as above; details: mouse, splenocytes, read-out: % LCV Control (percent of the control LCV response)
# Protocol: as §1
# [9] = viability of human PBL in the Con A and PHA stimulation assays; details: peripheral blood lymphocytes, 50 and 25 μg/ml
# Protocol: as §1
# [10] = 50 and 25 μg/ml, mitogen 10 μg/ml
structure (smiles),measurement,setting,value
"C=C/C=C\C(C)C(OC(N)=O)C(C)C(O)C(C)C/C(C)=C\C(C)C(O)C(C)/C=C\C(O)CC1OC(=O)C(C)C(O)C1C (single isomer, unassigned) [Discodermolide, discodermolide]",PHA (counts per minute of incorporated 3H-thymidine),[1]; 6.3 μg/ml,441580 Counts per minute
same,PHA (counts per minute of incorporated 3H-thymidine),[1]; 12.5 μg/ml,391633 Counts per minute
same,PHA (counts per minute of incorporated 3H-thymidine),[1]; 25 μg/ml,14425 Counts per minute
same,PHA (counts per minute of incorporated 3H-thymidine),[1]; 50 μg/ml,16984 Counts per minute
same,suppression of PHA stimulation of human PBL (in words),[1]; [10],suppressed
same,immunosuppressive activity in the murine MLR (in words),[2]; 0.5 μg/ml,immunosuppressive
same,immunosuppressive activity in the murine MLR (in words),"[2]; 500, 50 and 5 μg/ml",exhibited immunosuppressive activity
same,activity at 0.5 µg/mL,"[2]; Mus musculus, Splenocyte, 0.5 μg/ml, read-out: % MLR Control (percent of the control MLR response)",18%
same,activity at 5 µg/mL,"[2]; Mus musculus, Splenocyte, 5 μg/ml, read-out: % MLR Control (percent of the control MLR response)",25%
same,activity at 50 µg/mL,"[2]; Mus musculus, Splenocyte, 50 μg/ml, read-out: % MLR Control (percent of the control MLR response)",< 1%
same,activity at 500 µg/mL,"[2]; Mus musculus, Splenocyte, 500 μg/ml, read-out: % MLR Control (percent of the control MLR response)",< 1%
same,Con A (counts per minute of incorporated 3H-thymidine),[3]; 6.3 μg/ml,299518 Counts per minute
same,Con A (counts per minute of incorporated 3H-thymidine),[3]; 12.5 μg/ml,213740 Counts per minute
same,Con A (counts per minute of incorporated 3H-thymidine),[3]; 25 μg/ml,11567 Counts per minute
same,Con A (counts per minute of incorporated 3H-thymidine),[3]; 50 μg/ml,10230 Counts per minute
same,suppression of Con A stimulation of human PBL (in words),[3]; [10],suppressed
same,CPM (counts per minute of incorporated 3H-thymidine),[4]; 0.4 μg/ml,64211 CPM
same,CPM (counts per minute of incorporated 3H-thymidine),[4]; 0.8 μg/ml,49509 CPM
same,CPM (counts per minute of incorporated 3H-thymidine),[4]; 1.6 μg/ml,26336 CPM
same,CPM (counts per minute of incorporated 3H-thymidine),[4]; 3.1 μg/ml,8532 CPM
same,CPM (counts per minute of incorporated 3H-thymidine),[4]; 6.3 μg/ml,4996 CPM
same,CPM (counts per minute of incorporated 3H-thymidine),[4]; 12.5 μg/ml,2091 CPM
same,CPM (counts per minute of incorporated 3H-thymidine),[4]; 25 μg/ml,1728 CPM
same,CPM (counts per minute of incorporated 3H-thymidine),[4]; 50 μg/ml,1932 CPM
same,immunosuppressive activity in the human MLR (in words),"[4]; 50, 25, 12.5, 6.3, 3.1 and 1.6 μg/ml",immunosuppressive
same,inhibition at 0.125 µg/mL,[5]; 0.125 μg/ml,2%
same,inhibition at 0.25 µg/mL,[5]; 0.25 μg/ml,12%
same,inhibition at 0.5 µg/mL,[5]; 0.5 μg/ml,49%
same,inhibition at 1 µg/mL,[5]; 1.0 μg/ml,75%
same,inhibition at 2.5 µg/mL,[5]; 2.5 μg/ml,87%
same,inhibition at 5 µg/mL,[5]; 5 μg/ml,88%
same,inhibition at 10 µg/mL,[5]; 10 μg/ml,90%
same,inhibition at 20 µg/mL,[5]; 20 μg/ml,92%
same,IC50,[5]; read-out: IC50 (concentration resulting in 50% inhibition of proliferation),0.5 µg/mL
same,viability,"[6]; peripheral blood lymphocytes, 0.4 μg/ml, read-out: % Viability (% viable cells as measured by M.T.T. metabolism)",115%
same,viability,"[6]; peripheral blood lymphocytes, 1.6 μg/ml, read-out: % Viability (% viable cells as measured by M.T.T. metabolism)",110%
same,viability,"[6]; peripheral blood lymphocytes, 3.1 μg/ml, read-out: % Viability (% viable cells as measured by M.T.T. metabolism)",94%
same,viability,"[6]; peripheral blood lymphocytes, 6.3 μg/ml, read-out: % Viability (% viable cells as measured by M.T.T. metabolism)",94%
same,viability,"[6]; peripheral blood lymphocytes, 12.5 μg/ml, read-out: % Viability (% viable cells as measured by M.T.T. metabolism)",94%
same,viability,"[6]; peripheral blood lymphocytes, 25 μg/ml, read-out: % Viability (% viable cells as measured by M.T.T. metabolism)",102%
same,viability,"[6]; peripheral blood lymphocytes, 50 μg/ml, read-out: % Viability (% viable cells as measured by M.T.T. metabolism)",204%
same,viability,"[6]; peripheral blood lymphocytes, 50, 25, 12.5, 6.3, 3.1 and 1.6 μg/ml, read-out: viability in the human MLR",> 94%
same,toxicity in the murine assay (in words),[7]; 0.5 μg/ml,no associated toxicity
same,toxicity in the murine assay (in words),"[7]; 500, 50 and 5 μg/ml",with associated toxicity
same,viability,[8]; 0.5 μg/ml,151%
same,viability,[8]; 5 μg/ml,68%
same,viability,[8]; 50 μg/ml,26%
same,viability,[8]; 500 μg/ml,< 1%
same,viability,[9],> 91%
